Laboratory results reported in paper PMC6493727, “FluoroCellTrack: An algorithm for automated analysis of high-throughput droplet microfluidic data” (PLoS ONE, 2019).

Tested on: OPM-2 cells
Test: Dose response of single OPM-2 cells to Bortezomib, live/dead staining in a droplet trapping array
Format: cell-based
Conditions: for Dead Cells / Live Cells: Calcein AM/EthD-1 staining; for Dead Cells / Live Cells / Overlapping Cells: FluoroCellTrack automated count, n=787 droplets
From the text: First, a mask was generated by detecting differently colored cells from the input image, Fig 3A. This mask (Fig 3B) was overlapped with the input image and was subjected to edge detection, dilation and erosion to yield Fig 3C, which was then segmented through random walker algorithm to detect and distinguish attached cells. Random walker segmentation algorithm was used over traditional watershed algorithm due to its highly precise probabilistic interpretation of local maxima (Fig 3D). The distinguished contours from this image were then filtered for area, where cellular area equal to or greater than 130 pixels were outlined and labeled as shown in Fig 3E. 130 was selected as the thresholding value due to the mean cellular area being ~140 pixels. This step was essential to exclude debris to eliminate false positives. However, in case of co-culture platforms, where primary cells are of the same size as that of the secondary cells, or in systems where the debris is of the same size as that of the cells, specific cellular or organelle staining can be used to distinguish these features and the extensive palette used in computer vision aids in easy detection of such features. […] For instance, similar features with slight deviations in shape, size and orientation were easily detected by the droplet/contour detection steps of FluoroCellTrack but would need a repository of many templates while using the template matching feature, showing that the latter can be highly uneconomical. The broad palette of colors in computer vision can be exploited here to detect any fluorescent cell and as an example here, the contour detection step was implemented to quantify actual cellular viability data as shown in Fig 4. Lower [B, G, R]: [0, 51, 0] and upper [B, G, R]: [153, 255, 153] boundaries were given for live cells and, dead cells were identified with the lower and upper color boundaries at; [153, 153, 255] while overlapping cells were identified with lower and upper color boundaries of [0, 51, 51]; [153, 255, 255]. Cells with overlapping signals in both the green and red filter sets represent cells with compromised plasma membranes (indicative of a dead cell), but with remaining esterase activity to react with the Calcein AM. These cells were noted as ‘dying’ cells to distinguish them from the clean live and dead signals using the other contour boundaries. The contours with specific colors were detected from the input images, where the positively detected live, dead and overlapping cells with an area equal to or greater than 130 pixels were outlined with distinct colors: live cells in red, dead cells in blue and overlapping cells in purple (Fig 4). The outlined cell-center map was overlaid with the droplet center map and scanned to fit within 25<R<50-micron values (denoted by white arrows), to account for single/multiple cell encapsulation information as shown in the output data of Fig 4. This step was essential to calculate the single-cell encapsulation efficiency and to eliminate cells that were freely floating in the device, thus including cells that were only inside the droplets. Additionally, the user can easily eliminate the droplet detection step to use this contour detection as a stand-alone platform (similar to ImageJ and Cell Profiler) to detect and quantify properties of fluorescent cells from other microfluidic or non-microfluidic applications. The advantage of FluoroCellTrack over current software tools like ImageJ and Cell Profiler lies in the fact that the former can be employed in non-droplet microfluidic platforms in addition to droplet microfluidics, but the latter cannot be used to quantify high-throughput droplet microfluidic data.
An important application of any automated platform is to count cells and sort them based on their fluorescent response. As an example, the dose-dependent single cell response of OPM-2 cells to a clinical inhibitor, Bortezomib was observed. […]

For `CC(C)C[C@H](NC(=O)[C@H](Cc1ccccc1)NC(=O)c1cnccn1)B(O)O` [BTZ, Bortezomib], the “Dead Cells” value (1 nM BTZ, Day 1 (24 h)) was 5, the “Live Cells” value (1 nM BTZ, Day 1 (24 h)) was 311 and the “Overlapping Cells” value (1 nM BTZ, Day 1 (24 h), overlapping = dying cells (green and red signal)) was 28. For the same compound, the “Dead Cells” value (1 nM BTZ, Day 2 (48 h)) was 10, the “Live Cells” value (1 nM BTZ, Day 2 (48 h)) was 53 and the “Overlapping Cells” value (1 nM BTZ, Day 2 (48 h), overlapping = dying cells) was 45. For the same compound, the “Dead Cells” value (1 nM BTZ, Day 3 (72 h)) was 53, the “Live Cells” value (1 nM BTZ, Day 3 (72 h)) was 140 and the “Overlapping Cells” value (1 nM BTZ, Day 3 (72 h), overlapping = dying cells) was 206. For the same compound, the “viability of single OPM-2 cells” value (1 nM, 10 nM and 100 nM, 24 h, 48 h and 72 h incubation) was “decrease in viability at increasing concentrations and incubation times”, the “Dead Cells” value (10 nM BTZ, Day 1 (24 h)) was 5 and the “Live Cells” value (10 nM BTZ, Day 1 (24 h)) was 49. For the same compound, the “Overlapping Cells” value (10 nM BTZ, Day 1 (24 h), overlapping = dying cells) was 38, the “Dead Cells” value (10 nM BTZ, Day 2 (48 h)) was 67 and the “Live Cells” value (10 nM BTZ, Day 2 (48 h)) was 15. The “Overlapping Cells” value (10 nM BTZ, Day 2 (48 h), overlapping = dying cells) was 113, the “Dead Cells” value (10 nM BTZ, Day 3 (72 h)) was 92 and the “Live Cells” value (10 nM BTZ, Day 3 (72 h)) was 0. The “Overlapping Cells” value (10 nM BTZ, Day 3 (72 h), overlapping = dying cells) was 107, the “Dead Cells” value (100 nM BTZ, Day 1 (24 h)) was 75 and the “Live Cells” value (100 nM BTZ, Day 1 (24 h)) was 0. For the same compound, the “Overlapping Cells” value (100 nM BTZ, Day 1 (24 h), overlapping = dying cells) was 100, the “Dead Cells” value (100 nM BTZ, Day 2 (48 h)) was 320 and the “Live Cells” value (100 nM BTZ, Day 2 (48 h)) was 3. The “Overlapping Cells” value (100 nM BTZ, Day 2 (48 h), overlapping = dying cells) was 149, the “Dead Cells” value (100 nM BTZ, Day 3 (72 h)) was 108 and the “Live Cells” value (100 nM BTZ, Day 3 (72 h)) was 0. For the same compound, the “Overlapping Cells” value (100 nM BTZ, Day 3 (72 h), overlapping = dying cells) was 17.
